The values that follow come from ChEMBL document CHEMBL6134779, “Design of Proteolytic-Resistant Antifungal Peptides by Utilizing Minimum d-Amino Acid Ratios” (J Med Chem, 2024).

Converted amounts (≈) assume the structure as drawn. The source made the active and inactive calls. The rule behind the calls is not given here.

The subject of series [1] is Candida albicans. Kind of series: Antibiofilm activity against Candida albicans CGMCC 2.2086 assessed as eradication of mature biofilm at 4X MIC measured after 3 hrs by SYTO 9/propidium iodide staining based fluorescence microscopy. The class given is functional, organism-based.
Series [2] deals with Candida albicans. Kind of series: Antifungal activity against Candida albicans CGMCC 2.2086 assessed as inhibition of fungal growth incubated for 48 hrs. The class given is functional.
The test system of series [3] is Candida albicans. Kind of series: Antifungal activity against Candida albicans CGMCC 2.2086 infected in C57BL/6 mouse keratitis model assessed as reduction in mycelia in the eyes at 5 mg/ml administered as 10 uL eye drop every 5 mins for first 1 hr and every 30 mins for next 7 hrs by Schiff staining based assay. It is filed as functional, organism-based. As to conditions: route ou, time 8.0 hrs.

A short description of series [4]: Cytotoxicity against porcine IPEC-J2 cells assessed as reduction in cell viability at 128 uM incubated for 4 hrs by MTT assay. The class given is toxicity, cell-based, Sus scrofa. As to conditions: pig, ipec-j2, 4 h.
Another series relates to Candida tropicalis. Kind of series: Antifungal activity against Candida tropicalis CGMCC 2.1975 assessed as inhibition of fungal growth incubated for 48 hrs. The class given is functional.
The test system of series [5] is Candida albicans. Kind of series: Antifungal activity against Candida albicans CGMCC 2.2086 assessed as inhibition of fungal growth incubated for 2 to 4 hrs in presence of 100% serum. As to conditions: time 2-4 hrs. It is filed as functional, organism-based.
Series [6] in a line: Hemolytic activity in human red blood cells assessed as hemolysis rate at 512 uM incubated for 1 hr relative to control. The class given is toxicity, cell-based, Erythrocyte. As to conditions: read-out: Activity.
Series [7] deals with Candida albicans. Kind of series: Antifungal activity against Candida albicans SP3902 assessed as inhibition of fungal growth incubated for 48 hrs. The class given is functional.
Series [8] concerns Candida albicans. Kind of series: Antifungal activity against Candida albicans CGMCC 2.2086 assessed as inhibition of fungal growth incubated for 2 hrs in presence of protease K. It is filed as functional, organism-based.
Series [9] is described as follows: Stability of the compound in FeCl3 assessed as change in secondary structure by CD spectra analysis. The class given is physicochemical.
In series [10] the test system is Candida albicans. Kind of series: Antibiofilm activity against Candida albicans CGMCC 2.2086 assessed as inhibition of biofilm formation at antifungal MIC measured after 48 hrs by crystal violet staining based assay. The class given is functional.
Series [11] concerns Candida albicans. Kind of series: Induction of Candida albicans CGMCC 2.2086 cell wall permeabilization at 16 uM by NPN probe based assay relative to control. It is filed as functional.
Series [12] is described as follows: Proteolytic stability of the compound assessed as chymotrypsin (unknown origin)-mediated drug degradation measured after 8 hrs by RP-HPLC analysis. The class given is ADME. As to conditions: human.
In series [13] the test system is Candida albicans. Kind of series: Induction of morphological changes in Candida albicans CGMCC 2.2086 assessed as separation of cell wall from plasma membrane at 1X MIC measured after 60 mins by TEM analysis. The class given is functional, organism-based.
Series [14] in a line: Proteolytic stability of the compound assessed as trypsin (unknown origin)-mediated drug degradation measured after 8 hrs by 16.5% tricine-SDS-PAGE analysis. The class given is ADME. Particulars: human.
A short description of series [15]: Stability of the compound in KCl assessed as change in secondary structure by CD spectra analysis. It is filed as physicochemical.
For series [16], the system named is Candida albicans. Kind of series: Induction of morphological changes in Candida albicans CGMCC 2.2086 assessed as appearance of cell wrinkles at 1X MIC measured after 60 mins by SEM analysis. The class given is functional, organism-based.
For series [17], the system named is Candida albicans. Kind of series: Antifungal activity against Candida albicans CGMCC 2.2086 infected in C57BL/6 mouse keratitis model assessed as reduction in clinical scores at 5 mg/ml administered as 10 uL eye drop every 5 mins for first 1 hr and every 30 mins for next 7 hrs. The class given is functional, organism-based. Particulars: route ou, time 8.0 hrs.

As to `CC[C@H](C)[C@H](N)C(=O)N[C@H](C(=O)N[C@H](CCCNC(=N)N)C(=O)N[C@@H](CCCNC(=N)N)C(=O)N[C@@H](Cc1c[nH]cn1)C(=O)N[C@H](C(=O)N[C@H](C(=O)N[C@H](C(=O)N[C@H](C(=O)N[C@H](CCCNC(=N)N)C(=O)N[C@@H](CCCNC(=N)N)C(=O)N[C@@H](Cc1c[nH]cn1)C(=O)N[C@H](C(=O)N[C@H](C(=O)N[C@H](C(=O)N[C@H](C(=O)N[C@H](CCCNC(=N)N)C(=O)N[C@@H](CCCNC(=N)N)C(=O)N[C@@H](Cc1c[nH]cn1)C(=O)N[C@H](C(=O)N[C@H](C(N)=O)[C@@H](C)CC)[C@@H](C)CC)[C@@H](C)CC)[C@@H](C)CC)[C@@H](C)CC)[C@@H](C)CC)[C@@H](C)CC)[C@@H](C)CC)[C@@H](C)CC)[C@@H](C)CC)[C@@H](C)CC`, the result in the series on Candida albicans [1], in the series on Candida albicans [8], in the series with Candida albicans [13], in the series on Candida albicans [16] and with Candida albicans [17] was Active. In addition, the MIC95 in the series on Candida albicans [2] was 4 µM (≈ 10.9 µg/mL); with Candida tropicalis, 2 µM (≈ 5.45 µg/mL); in the series with Candida albicans [7] it was 2 µM (≈ 5.45 µg/mL). Also, the Activity result in the series with Candida albicans [3] was “Active; Mycelia In The Eyes Was Either Absent Or Minimal”; in [4], “Toxic”; in the series with Candida albicans [11], greater than 100%. Besides, in the series on Candida albicans [5], the “growth inhibition (GI)” value is “Active; No Alterations In The Antimicrobial Activity Was Observed In Presence Of Serum”. Further, the hemolysis at 1 h, 512 µM in [6] was found to be 40.8%. Moreover, the Stability result in series [9], in series [12], in series [14] and in series [15] was “Stable” in each case. Also, the “inhibition (INH)” value in the series with Candida albicans [10] is given as 90%.
